According to EP4775580A1, “COMPOUND, PHARMACEUTICAL COMPOSITION COMPRISING SAME, AND USE THEREOF” (Euregen Biopharma Co., Ltd., priority 2023, dated 2025):
Where a chain is given by its changes, count along the chain named.

Legend:
HL-60 cells = assay: Antiproliferative activity, CellTiter-Glo, 7 days (Test Example 2), HL-60; assay type: cell-based; conditions: Homo sapiens, 168 h, HL-60 cells (no Menin-MLL fusion), 7 days incubation
Excerpt: [0134] 1. Experimental Principle: MV-4-11, Molm-13, and OCI-AML-3 cells are human hematologic tumor cell lines harboring the Menin-MLL fusion. HL-60 is a wild-type human hematologic tumor cell line without Menin-MLL fusion. […] 2. Experimental Materials: MV-4-11, Molm-13, OCI-AML-3, and HL-60 cells were all purchased from Cobioer; CellTiter-Glo® was purchased from Promega (Cat. #G7571); RPMI-1640 was purchased from Viva Cell (Cat. #C3010-0500); IMDM was purchased from Viva Cell (Cat. #C3040-0500); fetal bovine serum (FBS) was purchased from Biosera (Cat. #FB-1058/500); penicillin-streptomycin was purchased from BasalMedia (Cat. #S110JV); 0.25% Trypsin-EDTA was purchased from BasalMedia (Cat. #S310KJ); dimethyl sulfoxide (DMSO) was purchased from Sinopharm (Cat. #30072418); 96-well plates were purchased from Corning (Cat. #3610); incubator was obtained from PHCbi (Model: MCO-18AC); inverted microscope was obtained from Mingmei (Cat. #MI52-0); automated cell counter was obtained from BodBoge (Model: JSY-SC-031N); microplate reader was obtained from PerkinElmer (Model: Envision); data processing software: GraphPad Prism 8.0. 3. Experimental Methods: Four cell lines in logarithmic growth phase were resuspended in their respective growth media (MV-4-11: IMDM + 20% FBS; Molm-13: RPMI-1640 + 20% FBS; OCI-AML-3: RPMI-1640 + 20% FBS; HL-60: RPMI-1640 + 10% FBS) and diluted to target densities (12,500, 6,250, 12,500, and 12,500/mL, respectively). The cell suspensions were seeded into 96-well plates at 80 µL per well and incubated overnight at 37°C in a 5% CO2 incubator. Culture medium served as the background control. Test compounds were dissolved in DMSO to prepare 10 mmol/L stock solutions. The stock solutions were first diluted to 2 mmol/L with DMSO, followed by 4-fold serial dilutions to generate 10 concentrations. From each concentration, 2 µL was diluted with 78 µL growth medium. […] After incubation at room temperature for 10 minutes, luminescence values were read using the EnVision microplate reader, and IC50 values were calculated using GraphPad Prism 8.0 software. […]

Menin-M327V = molecular target: T1, Menin-M327V (Homo sapiens, UniProt O00255, M322V); assay: Fluorescence polarization assay of Menin binding to MLL peptide, M327V mutant; conditions: FP, 8 nM Menin, 4 nM MLL peptide
T1 sequence (O00255 1-615 isoform O00255-1 M327V): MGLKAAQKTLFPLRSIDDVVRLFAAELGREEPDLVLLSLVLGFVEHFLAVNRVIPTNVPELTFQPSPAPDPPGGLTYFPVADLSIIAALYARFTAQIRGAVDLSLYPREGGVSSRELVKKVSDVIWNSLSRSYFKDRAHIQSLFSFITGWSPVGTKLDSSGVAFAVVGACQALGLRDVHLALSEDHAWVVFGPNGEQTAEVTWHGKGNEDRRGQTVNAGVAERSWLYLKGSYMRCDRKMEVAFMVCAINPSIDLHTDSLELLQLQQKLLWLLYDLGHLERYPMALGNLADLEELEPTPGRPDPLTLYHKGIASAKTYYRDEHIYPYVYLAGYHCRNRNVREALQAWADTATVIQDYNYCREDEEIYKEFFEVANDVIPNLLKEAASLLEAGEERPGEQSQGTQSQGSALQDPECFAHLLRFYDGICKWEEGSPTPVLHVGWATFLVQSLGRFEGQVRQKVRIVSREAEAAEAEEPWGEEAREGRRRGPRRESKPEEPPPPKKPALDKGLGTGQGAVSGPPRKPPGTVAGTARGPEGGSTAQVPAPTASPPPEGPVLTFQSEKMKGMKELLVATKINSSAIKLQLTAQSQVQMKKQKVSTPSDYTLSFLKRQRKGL
Excerpt: (§1) • 1. Objective: To evaluate the inhibitory activity of compounds against wild-type Menin protein (Menin-WT) and its mutant variants (Menin-M327V, Menin-M327I, Menin-T349M, Menin-S160T, Menin-S160C, Menin-G331R, and Menin-G331D). • 2. Experimental Principle: The experiment employed fluorescence polarization (FP) to detect the binding of wild-type Menin protein and its mutant variants to MLL peptide. In the absence of inhibitors, binding of wild-type Menin protein and its mutant variants to MLL peptide generates a high FP signal; upon addition of inhibitors, the binding between Menin proteins and MLL peptide is disrupted, resulting in a low FP signal. • 3. Experimental Materials: Final concentration of wild-type Menin protein and its mutant variants: 8 nM; final concentration of MLL peptide: 4 nM. Assay buffer: 50 mM Tris-HCl (pH 8.0), 120 mM NaCl, 0.005% CA-630, 2 mM DTT. • 4. […] The plate was centrifuged at 1000 rpm for 60 seconds. Subsequently, 10 µL of MLL peptide was added to each assay well. The plate was centrifuged at 1000 rpm for 60 seconds and sealed with a sealing membrane. After incubation at 23°C for 60 minutes, the plate was read using a PerkinElmer Envision reader. Data Analysis: [formula]
(§2) Curve fitting: XLFIT software was used for curve fitting, employing a four-parameter logistic model with percent inhibition versus log(compound concentration) as variables.

Menin-M327I = molecular target: T2, Menin-M327I (Homo sapiens, UniProt O00255, M322I); assay: Fluorescence polarization assay of Menin binding to MLL peptide, M327I mutant; conditions: FP, 8 nM Menin, 4 nM MLL peptide
T2 sequence (O00255 1-615 isoform O00255-1 M327I): T1 sequence (O00255 1-615 isoform O00255-1 M327V) with V327I
Excerpt: as §1, §2

SMILES	IC50 (HL-60 cells) [nM]	IC50 (Menin-M327V) [nM]	IC50 (Menin-M327I) [nM]
CCN(C(=O)c1cc(F)ccc1Oc1cncnc1N1CC2(CCN(C[C@H]3CC[C@H](NS(=O)(=O)CC)CC3)CC2)C1)C(C)C [SNDX-5613, revumenib]	> 10000	1300	928
CCN(C(=O)c1cc(F)ccc1N1CCN([C@@H]2CCN([C@H](CCCN(C)CCOC)C(C)C)C2)c2ncncc21)C(C)C [Example 3]	> 10000	49.3	40.7
